Data on 34 molecules can be found in patent US9452986B2, “6-heteroaryloxy- or 6-aryloxy-quinoline-2-carboxamides and method of use” (AbbVie Inc., priority 2014, dated 2016).

The structures appear in SMILES notation. Where only a bound is given, the exact number is not on record here.

recombinant human Nav1.7, sequence (Q15858 whole entry): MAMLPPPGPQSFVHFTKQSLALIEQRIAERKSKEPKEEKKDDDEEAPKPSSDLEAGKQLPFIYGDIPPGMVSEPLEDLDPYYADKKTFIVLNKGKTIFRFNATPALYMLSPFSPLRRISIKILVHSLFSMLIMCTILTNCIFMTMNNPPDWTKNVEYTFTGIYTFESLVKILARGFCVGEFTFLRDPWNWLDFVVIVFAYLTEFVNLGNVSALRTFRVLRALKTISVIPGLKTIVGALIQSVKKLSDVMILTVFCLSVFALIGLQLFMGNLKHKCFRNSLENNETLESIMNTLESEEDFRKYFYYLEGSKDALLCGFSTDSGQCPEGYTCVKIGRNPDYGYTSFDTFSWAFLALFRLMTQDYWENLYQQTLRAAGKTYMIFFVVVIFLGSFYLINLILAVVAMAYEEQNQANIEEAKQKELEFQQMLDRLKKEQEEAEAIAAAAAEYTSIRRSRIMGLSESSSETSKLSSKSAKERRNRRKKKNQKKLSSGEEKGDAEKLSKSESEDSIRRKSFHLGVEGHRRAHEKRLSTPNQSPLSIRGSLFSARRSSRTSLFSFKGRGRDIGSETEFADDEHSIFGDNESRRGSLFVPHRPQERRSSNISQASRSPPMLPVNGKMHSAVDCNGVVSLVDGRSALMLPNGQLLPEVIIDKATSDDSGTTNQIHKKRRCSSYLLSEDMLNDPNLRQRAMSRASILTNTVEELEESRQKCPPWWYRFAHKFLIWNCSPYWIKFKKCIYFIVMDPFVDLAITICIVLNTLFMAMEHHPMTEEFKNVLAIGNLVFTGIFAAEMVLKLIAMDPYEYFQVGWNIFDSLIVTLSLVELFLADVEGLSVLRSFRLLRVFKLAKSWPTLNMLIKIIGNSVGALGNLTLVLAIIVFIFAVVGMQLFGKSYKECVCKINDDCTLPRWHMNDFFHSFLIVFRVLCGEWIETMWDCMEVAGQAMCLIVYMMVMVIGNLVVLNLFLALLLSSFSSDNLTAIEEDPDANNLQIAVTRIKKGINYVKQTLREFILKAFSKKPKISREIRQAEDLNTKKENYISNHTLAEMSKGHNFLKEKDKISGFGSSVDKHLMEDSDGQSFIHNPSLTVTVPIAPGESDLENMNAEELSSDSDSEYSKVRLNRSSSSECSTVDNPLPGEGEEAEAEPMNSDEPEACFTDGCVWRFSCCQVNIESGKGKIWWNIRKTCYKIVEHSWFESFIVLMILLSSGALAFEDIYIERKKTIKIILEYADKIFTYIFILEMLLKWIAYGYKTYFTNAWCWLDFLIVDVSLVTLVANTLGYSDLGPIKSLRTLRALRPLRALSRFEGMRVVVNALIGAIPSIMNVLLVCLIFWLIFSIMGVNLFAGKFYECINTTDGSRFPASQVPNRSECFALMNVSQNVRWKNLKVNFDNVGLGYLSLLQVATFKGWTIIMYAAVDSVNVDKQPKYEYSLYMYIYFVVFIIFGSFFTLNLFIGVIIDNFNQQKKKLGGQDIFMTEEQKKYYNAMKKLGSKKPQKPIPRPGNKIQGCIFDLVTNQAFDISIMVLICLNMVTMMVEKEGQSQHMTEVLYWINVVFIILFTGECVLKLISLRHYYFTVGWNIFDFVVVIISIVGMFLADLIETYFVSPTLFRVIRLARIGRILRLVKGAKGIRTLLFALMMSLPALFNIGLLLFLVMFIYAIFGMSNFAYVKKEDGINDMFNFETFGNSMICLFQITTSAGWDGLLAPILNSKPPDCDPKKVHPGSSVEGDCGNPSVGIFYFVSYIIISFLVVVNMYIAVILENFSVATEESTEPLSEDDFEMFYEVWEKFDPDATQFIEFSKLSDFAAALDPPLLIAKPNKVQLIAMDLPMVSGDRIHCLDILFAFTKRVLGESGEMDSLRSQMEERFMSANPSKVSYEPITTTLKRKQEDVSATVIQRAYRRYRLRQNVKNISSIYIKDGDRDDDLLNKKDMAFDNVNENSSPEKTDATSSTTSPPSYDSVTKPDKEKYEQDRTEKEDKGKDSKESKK

The first experiment concerns the target recombinant human Nav1.7 (Homo sapiens (Human), UniProt Q15858). Put plainly: FRET-based membrane potential assay, recombinant human sodium channel Nav1.7. It counts as cell-based. Conditions: HEK293 cells stably expressing recombinant human Nav1.7; veratridine + scorpion venom depolarization; read-out: FRET-Membrane Potential Nav1.7 IC50. In short, it runs like this:
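Channel activation used veratridine at its EC80, set by a dilution curve each experiment, together with Leiurus scorpion venom, added 3 min after compound. Membrane-potential ratio signals from FLIPR Tetra in HEPES-buffered HBSS were fitted to a four-parameter Hill equation for percent inhibition and IC50.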
What is called IC50 is the concentration that inhibits the measured activity by half. Regarding `O=C(c1ccc2cc(Oc3ccc(C(F)(F)F)cn3)ccc2n1)N1CCC(F)(F)C1` [Example 404, (3,3-difluoropyrrolidin-1-yl)(6-{[5-(trifluoromethyl)pyridin-2-yl]oxy}quinolin-2-yl)methanone], the IC50 came out at 1950 nM. `CC1(C)CCN(C(=O)c2ccc3cc(Oc4ccc(C(F)(F)F)cn4)ccc3n2)C1` [Example 405, (3,3-dimethylpyrrolidin-1-yl)(6-{[5-(trifluoromethyl)pyridin-2-yl]oxy}quinolin-2-yl)methanone]: the IC50 stood at 1400 nM.

Consider `O=C(c1ccc2cc(Oc3ccc(C(F)(F)F)cn3)ccc2n1)N1CCNCC(F)C1` (stereo not shown) [Example 406, (6-fluoro-1,4-diazepan-1-yl)(6-{[5-(trifluoromethyl)pyridin-2-yl]oxy}quinolin-2-yl)methanone], for which the IC50 was found to be 1060 nM.

As for `O=C(c1ccc2cc(Oc3ccc(C(F)(F)F)cn3)ccc2n1)N1CCNCC(O)C1` (stereo not shown) [Example 407, (6-hydroxy-1,4-diazepan-1-yl)(6-{[5-(trifluoromethyl)pyridin-2-yl]oxy}quinolin-2-yl)methanone], the IC50 came to 3810 nM. The same measure, in the same setting: the figure for `CS(=O)(=O)NC1CCN(C(=O)c2ccc3cc(Oc4ccc(C(F)(F)F)cn4)ccc3n2)CC1` [Example 408, N-{1-[(6-{[5-(trifluoromethyl)pyridin-2-yl]oxy}quinolin-2-yl)carbonyl]piperidin-4-yl}methanesulfonamide] is > 20000 nM; for `O=C(NC[C@H]1CCCO1)c1ccc2cc(Oc3ccc(C(F)(F)F)cn3)ccc2n1` [Example 409, N-[(2R)-tetrahydrofuran-2-ylmethyl]-6-{[5-(trifluoromethyl)pyridin-2-yl]oxy}quinoline-2-carboxamide] it is 403 nM. Same read-out and setting: the figure for `CN(C(=O)c1ccc2cc(Oc3ccc(C(F)(F)F)cn3)ccc2n1)C1CCOCC1` [Example 411, N-methyl-N-(tetrahydro-2H-pyran-4-yl)-6-{[5-(trifluoromethyl)pyridin-2-yl]oxy}quinoline-2-carboxamide] is 14100 nM. For the molecule `CN(C)C(=O)CN(C)C(=O)c1ccc2cc(Oc3ccc(C(F)(F)F)cn3)ccc2n1` [Example 413, N-[2-(dimethylamino)-2-oxoethyl]-N-methyl-6-{[5-(trifluoromethyl)pyridin-2-yl]oxy}quinoline-2-carboxamide], the IC50 came to 12400 nM. On to `O=C(c1ccc2cc(Oc3ccc(C(F)(F)F)cn3)ccc2n1)N1CCC(C(F)(F)F)C1` (stereo not shown) [Example 414, (6-{[5-(trifluoromethyl)pyridin-2-yl]oxy}quinolin-2-yl)[3-(trifluoromethyl)pyrrolidin-1-yl]methanone], for which the IC50 was 5020 nM. On the same count and under the same terms, the figure for `O=C(c1ccc2cc(Oc3ccc(C(F)(F)F)cn3)ccc2n1)N1CC(F)C(F)C1` (stereo not shown) [Example 415, (3,4-difluoropyrrolidin-1-yl)(6-{[5-(trifluoromethyl)pyridin-2-yl]oxy}quinolin-2-yl)methanone] is 1610 nM; for `O=C1CCC(NC(=O)c2ccc3cc(Oc4ccc(C(F)(F)F)cn4)ccc3n2)CN1` (stereo not shown) [Example 416, N-(6-oxopiperidin-3-yl)-6-{[5-(trifluoromethyl)pyridin-2-yl]oxy}quinoline-2-carboxamide] it is 700 nM; for `O=C(c1ccc2cc(Oc3ccc(C(F)(F)F)cn3)ccc2n1)N1CCNC2(CCC2)C1` [Example 418, 5,8-diazaspiro[3.5]non-8-yl(6-{[5-(trifluoromethyl)pyridin-2-yl]oxy}quinolin-2-yl)methanone] it is 539 nM. Still for that read-out and setting: the figure for `CN(C(=O)c1ccc2cc(Oc3ccc(C(F)(F)F)cn3)ccc2n1)C1CCS(=O)(=O)C1` (stereo not shown) [Example 419, N-(1,1-dioxidotetrahydrothiophen-3-yl)-N-methyl-6-{[5-(trifluoromethyl)pyridin-2-yl]oxy}quinoline-2-carboxamide] is 11900 nM; for `O=C(NC1CCSC1)c1ccc2cc(Oc3ccc(C(F)(F)F)cn3)ccc2n1` (stereo not shown) [Example 420, N-(tetrahydrothiophen-3-yl)-6-{[5-(trifluoromethyl)pyridin-2-yl]oxy}quinoline-2-carboxamide] it is 2430 nM; for `O=C(NCCN1CCNC1=O)c1ccc2cc(Oc3ccc(C(F)(F)F)cn3)ccc2n1` [Example 421, N-[2-(2-oxoimidazolidin-1-yl)ethyl]-6-{[5-(trifluoromethyl)pyridin-2-yl]oxy}quinoline-2-carboxamide] it is 1060 nM. As for `O=C(NCCNc1ccccn1)c1ccc2cc(Oc3ccc(C(F)(F)F)cn3)ccc2n1` [Example 422, N-[2-(pyridin-2-ylamino)ethyl]-6-{[5-(trifluoromethyl)pyridin-2-yl]oxy}quinoline-2-carboxamide], the IC50 came out at 617 nM.

With `O=C(NCCn1ccnc1)c1ccc2cc(Oc3ccc(C(F)(F)F)cn3)ccc2n1` [Example 423, N-[2-(1H-imidazol-1-yl)ethyl]-6-{[5-(trifluoromethyl)pyridin-2-yl]oxy}quinoline-2-carboxamide], the IC50 stood at 830 nM. Take `CC1(O)CC(NC(=O)c2ccc3cc(Oc4ccc(C(F)(F)F)cn4)ccc3n2)C1` (stereo not shown) [Example 426, N-(3-hydroxy-3-methylcyclobutyl)-6-{[5-(trifluoromethyl)pyridin-2-yl]oxy}quinoline-2-carboxamide]: the IC50 worked out at 972 nM. Turning to `COCCOC1CN(C(=O)c2ccc3cc(Oc4ccc(C(F)(F)F)cn4)ccc3n2)C1` [Example 427, [3-(2-methoxyethoxy)azetidin-1-yl](6-{[5-(trifluoromethyl)pyridin-2-yl]oxy}quinolin-2-yl)methanone], the IC50 is > 20000 nM. Same read-out and setting: as for `CS(=O)(=O)NC1CN(C(=O)c2ccc3cc(Oc4ccc(C(F)(F)F)cn4)ccc3n2)C1` [Example 428, N-{1-[(6-{[5-(trifluoromethyl)pyridin-2-yl]oxy}quinolin-2-yl)carbonyl]azetidin-3-yl}methanesulfonamide], the figure is 10300 nM; as for `O=C1CC(NC(=O)c2ccc3cc(Oc4ccc(C(F)(F)F)cn4)ccc3n2)C1` [Example 432, N-(3-oxocyclobutyl)-6-{[5-(trifluoromethyl)pyridin-2-yl]oxy}quinoline-2-carboxamide], 2870 nM; as for `O=C(NC1CC(N2CCOCC2)C1)c1ccc2cc(Oc3ccc(C(F)(F)F)cn3)ccc2n1` (stereo not shown) [Example 433, N-[3-(morpholin-4-yl)cyclobutyl]-6-{[5-(trifluoromethyl)pyridin-2-yl]oxy}quinoline-2-carboxamide], 442 nM. As to `CC(C)(O)CNC(=O)c1ccc2cc(Oc3ccc(C(F)F)cn3)ccc2n1` [Example 434, 6-{[5-(difluoromethyl)pyridin-2-yl]oxy}-N-(2-hydroxy-2-methylpropyl)quinoline-2-carboxamide], the IC50 was 5580 nM. On the same count and under the same terms, the figure for `O=C(NC1CCC(F)(F)CC1)c1ccc2cc(Oc3ccc(C(F)F)cn3)ccc2n1` [Example 437, N-(4,4-difluorocyclohexyl)-6-{[5-(difluoromethyl)pyridin-2-yl]oxy}quinoline-2-carboxamide] is 3170 nM; for `O=C(N[C@@H]1CCN(C(=O)c2ccc3cc(Oc4ccc(C(F)(F)F)cn4)ccc3n2)C1)C1CC1` [Example 439, N-{(3R)-1-[(6-{[5-(trifluoromethyl)pyridin-2-yl]oxy}quinolin-2-yl)carbonyl]pyrrolidin-3-yl}cyclopropanecarboxamide] it is 5860 nM; for `O=C(c1ccc2cc(Oc3ccc(C(F)F)cn3)ccc2n1)N1CCN[C@@H](CO)C1` [Example 440, (6-{[5-(difluoromethyl)pyridin-2-yl]oxy}quinolin-2-yl) [(3R)-3-(hydroxymethyl)piperazin-1-yl]methanone] it is 12600 nM.

The same experiment, now with this note: read-out: FRET-Membrane Potential Nav1.7 IC50.
Consider `C[C@H](O)CNC(=O)c1ccc2cc(Oc3ccc(C(F)(F)F)cn3)ccc2n1` [Example 410, N-[(2S)-2-hydroxypropyl]-6-{[5-(trifluoromethyl)pyridin-2-yl]oxy}quinoline-2-carboxamide], for which the IC50 was 557 nM.

Turning to `O=C(NCC1(O)COC1)c1ccc2cc(Oc3ccc(C(F)(F)F)cn3)ccc2n1` [Example 412, N-[(3-hydroxyoxetan-3-yl)methyl]-6-{[5-(trifluoromethyl)pyridin-2-yl]oxy}quinoline-2-carboxamide], the IC50 is 513 nM.

In the case of `O=C(NCC1CCN1)c1ccc2cc(Oc3ccc(C(F)(F)F)cn3)ccc2n1` (stereo not shown) [Example 424, N-(azetidin-2-ylmethyl)-6-{[5-(trifluoromethyl)pyridin-2-yl]oxy}quinoline-2-carboxamide], the IC50 is 1310 nM. Still for that read-out and setting: the figure for `O=C(N[C@H]1CS(=O)(=O)C[C@@H]1O)c1ccc2cc(Oc3ccc(C(F)(F)F)cn3)ccc2n1` [Example 425, N-[(3R,4R)-4-hydroxy-1,1-dioxidotetrahydrothiophen-3-yl]-6-{[5-(trifluoromethyl)pyridin-2-yl]oxy}quinoline-2-carboxamide] is 9090 nM.

`O=C(c1ccc2cc(Oc3ccc(C(F)F)cn3)ccc2n1)N1CC(N2CCOCC2)C1` [Example 429, (6-{[5-(difluoromethyl)pyridin-2-yl]oxy}quinolin-2-yl) [3-(morpholin-4-yl)azetidin-1-yl]methanone]: the IC50 stood at 13800 nM. The same measure, in the same setting: as for `O=C(c1ccc2cc(Oc3ccc(C(F)F)cn3)ccc2n1)N1CCNCC1C(F)F` (stereo not shown) [Example 430, [2-(difluoromethyl)piperazin-1-yl](6-{[5-(difluoromethyl)pyridin-2-yl]oxy}quinolin-2-yl)methanone], the figure is 3450 nM; as for `O=C(c1ccc2cc(Oc3ccc(C(F)F)cn3)ccc2n1)N1CCC(N2CCOCC2)CC1` [Example 435, (6-{[5-(difluoromethyl)pyridin-2-yl]oxy}quinolin-2-yl)[4-(morpholin-4-yl)piperidin-1-yl]methanone], 12600 nM. Take `CC(=O)N[C@@H]1CCN(C(=O)c2ccc3cc(Oc4ccc(C(F)(F)F)cn4)ccc3n2)C1` [Example 438, N-{(3R)-1-[(6-{[5-(trifluoromethyl)pyridin-2-yl]oxy}quinolin-2-yl)carbonyl]pyrrolidin-3-yl}acetamide]: the IC50 is 12500 nM.
